Among the data in the SangsterLogP compilation are logP values, retold here.

This data set is described as follows: method code SF, from DOI: 10.1080/00021369.1987.10868331.

Usually logP stands for the decadic logarithm of the partition coefficient of the neutral form, usually between octanol and water. A high value points to a more lipophilic compound.

Compound `CCCCCCNc1nc(NCC)nc(SC(F)F)n1` came in with a logP of 5.53.

Compound `CCCCCCCCNc1nc(NCC)nc(SC(F)F)n1` displayed a logP of 6.61.

Consider `CCNc1nc(NCC)nc(SC(F)F)n1`, for which the log partition coefficient (logP) is 3.28.

In the case of `CNc1nc(NC(C)(C)C)nc(SC(F)F)n1`, the logP was 3.91.

`CCCCCNc1nc(NC)nc(SC(F)F)n1`: the logP came to 4.42.

`CNc1nc(NC(C)C)nc(SC(F)F)n1` returned a logP of 3.27.

On to `CCC(C)Nc1nc(NC)nc(SC(F)F)n1` (stereo unspecified), for which the logP stood at 3.69.

Turning to `CCCNc1nc(NCC)nc(SC(F)F)n1`, the logP was found to be 3.8.

Regarding `CCC(C)Nc1nc(NC(C)C)nc(SC(F)F)n1` (stereo unspecified), the logP was determined as 4.55.

On to `CCCCNc1nc(NC)nc(SC(F)F)n1`, for which the logP was 3.7.

With `CCNc1nc(NC)nc(SC(F)F)n1`, the logP came to 2.68.

In the case of `CC(C)Nc1nc(NC(C)C)nc(SC(F)F)n1`, the logP turned out to be 4.25.

`CNc1nc(NC)nc(SC(F)F)n1` showed a logP of 2.31.

Take `CCCNc1nc(NC(C)C)nc(SC(F)F)n1`: the logP was 4.23.

`CCCNc1nc(NCCC)nc(SC(F)F)n1` yielded a logP of 4.45.

As to `CCNc1nc(N)nc(SC(F)F)n1`, the logP was 2.29.

`CCCNc1nc(NC)nc(SC(F)F)n1` came in with a lipophilicity (logP) of 3.28.

As for `CCNc1nc(NC(C)C)nc(SC(F)F)n1`, the lipophilicity (logP) was 3.7.

`CCCCCNc1nc(NCC)nc(SC(F)F)n1` gave a logP of 4.71.

Regarding `Nc1nc(N)nc(SC(F)F)n1`, the lipophilicity (logP) was 1.21.

On to `CCCCNc1nc(NC(C)C)nc(SC(F)F)n1`, for which the logP is 4.75.

In the case of `CNc1nc(N)nc(SC(F)F)n1`, the logP is 1.75.

Turning to `CCCCNc1nc(NCC)nc(SC(F)F)n1`, the logP was found to be 4.51.

The compound `CCNc1nc(NC(C)(C)C)nc(SC(F)F)n1` came in with a logP of 4.57.

Regarding `CC(C)Nc1nc(NC(C)(C)C)nc(SC(F)F)n1`, the log partition coefficient (logP) was 4.7.

`CCNc1nc(NC(C)CC)nc(SC(F)F)n1` (stereo unspecified) had a lipophilicity (logP) of 4.23.
